# Measurements taken from a melting point compilation (Tetko et al.; mined from patent text by program, amines drawn as free bases though some values may be those of a salt).
row,SMILES,melting point [°C]
1,O=C(N1CCCC1)n1c(CN2CCN(c3ccccn3)CC2)nc2ccccc21,120 to 121
2,COc1ccccc1N1CCN(CCCNC(=O)c2cccc3c(=O)c(O)c(-c4ccccc4)oc23)CC1,196 to 199
3,NC(=O)c1c(Cl)c(-c2ccccc2)n2c1CN(S(=O)(=O)c1ccc(Cl)cc1)CC2,123 to 125
4,O=C1CCC(CCCOC2CCOCC2)(c2ccc(Cl)c(Cl)c2)CN1 (centres undefined),45
5,CCn1c(CC(=O)O)ccc1C(=O)c1ccc(Cl)cc1,149 to 153
6,CCCCc1nn(-c2ccccc2C(F)(F)F)c(=O)n1Cc1ccc(-c2ccccc2S(=O)(=O)NC(=O)c2ccccc2Cl)cc1F,88 to 90
7,COc1cc(-c2nc3ccc(OCCCN(C)C)cc3n2Cc2ccccc2)cc(OC)c1OC,112
8,CS(=O)(=O)c1ccc(-n2nc(C(F)(F)F)cc2-c2ccc(-c3ccoc3)cc2)cc1F,74 to 76
9,COC(=O)c1c[nH]c(-c2ccc(OC[C@@H](O)CNC(C)(C)C)cc2)n1,168 to 172
10,O=C(Nc1cnc2sc(CO)nc2c1)c1cc2cc(C(F)(F)F)ccc2n1Cc1nccs1,282 to 283
11,CC(N)=CC(=O)c1cccnc1,82
12,COc1ccc2c(C(C)=O)noc2c1,64 to 67
13,Cc1cc(=O)[nH]nc1-c1ccccc1,125 to 126
14,Fc1ccc(Nc2nnc(Cc3ccncc3)c3ccccc23)cc1,129 to 131
15,COC(=O)c1ccccc1S(=O)(=O)Nn1c(SC)nn(-c2nc(OC)cc(OC)n2)c1=O,179
16,CNC(=O)c1cc2[nH]cnc2c(Cl)c1NC(=O)c1cc(C(F)(F)F)nn1-c1ncccc1Cl,190 to 192
17,CNC(=S)Nc1ccccc1N1CCOCC1,115 to 116
18,COc1ccccc1CC(=O)N1C[C@H]2C[C@H](CO)C[C@](O)(c3ccccc3OC)[C@H]2C1 (racemic),162
19,O=C1CC(c2cccc(-n3ccnc3)c2)=Nc2ccc(-c3ccccc3F)cc2N1,179 to 182
20,CCCCn1ccc(Cc2cnc(N[N+](=O)[O-])[nH]c2=O)cc1=O,198 to 201
21,Cc1oc(-c2cccs2)nc1COc1ccc(Cn2cc(CCC(=O)O)c(-c3ccccc3)c2)cc1,117 to 118
22,CCCc1ccc(OCCN(C(=O)n2cccn2)c2ncnc3ccccc23)c(C)c1,114 to 115

row,SMILES,melting point [°C]
1,COc1ccc(CN2C(=O)C(O)(c3cc(CO)ccc3Cl)c3cc(Cl)ccc32)c(OC)c1 (centres undefined),107
2,CC(=O)c1c(SSc2c(C(C)=O)c3ccccc3n2C)n(C)c2ccccc12,178 to 180
3,OCc1cccc2cccnc12,74 to 75
4,O=C(O)COc1c(I)cc(C(=O)c2cccs2)cc1I,160
5,Fc1ccc(-c2[nH]cc(C3=CC4CCCCN4CC3)c2-c2ccncc2)cc1 (centres undefined),223 to 224
6,CN(c1cccc2cc(C3=NCC(CC(=O)NS(C)(=O)=O)S3)[nH]c12)S(=O)(=O)c1cccs1 (centres undefined),141
7,COc1cc2c(Nc3cc(O)c(C)cc3F)ncnc2cc1O,276 to 278
8,COc1cc(C(=O)N(CCCC(=O)NCCCC(=O)O)c2c(C)cccc2C)cc(OC)c1OC,100 to 101
9,CN1CCN(c2ccc([N+](=O)[O-])cc2C(F)(F)F)C1=O,119 to 120
10,ON=C(c1ccc(F)cc1)c1ccc(O)c(Cl)c1Cl,150 to 156
11,Cc1cccc2c1CCC(=O)C2(O)C(F)(F)F (centres undefined),122 to 123
12,COc1ccc2c(c1)OCC(/C=C/C=C/C=C/C(=O)O)=C2,238 to 240
13,O=c1[nH]c2ccc(S(=O)CCN3CCC(Cc4ccc(F)cc4)CC3)cc2o1 (centres undefined),202 to 204
14,Cn1cnc2nc(-c3cccc4ccccc34)nn2c1=S,278 to 279
15,O=C(c1ccccc1)c1ccc(SCC(O)CO)cc1 (centres undefined),86 to 88
16,BrCC(Br)c1ccc(C(Br)CBr)cc1 (centres undefined),155 to 157
17,CC(=O)Nc1ncc(S(=O)(=O)NCC(O)(Cn2cncn2)c2ccc(Cl)cc2Cl)s1 (centres undefined),96 to 112
18,CCN/C(=C1/Sc2ccccc2C1=O)c1ccccc1CC,76 to 77
19,"c1ccc(-c2ccc(C3CN4CCC3CC4)cc2)cc1 (single isomer, unassigned; (+))",85 to 86
20,COCOc1cccc(Cn2nc(C(=O)OC)c3c2-c2ccc(OCc4cncnc4)cc2CC3)c1,178 to 180
21,CN(C)CCOC(=O)c1cc2cccc(O)c2[nH]1,149 to 152
22,O=C1CN(Cc2ccc(CCn3cnc4cc(-c5ccc(Cl)cc5)sc4c3=O)cc2)CCN1,232 to 234

row,SMILES,melting point [°C]
1,COc1cccc(-c2nc3n(n2)Cc2cc(Cl)ccc2-3)c1,229 to 230
2,COc1ccc(C(=NO)c2ccccc2F)c(Cl)c1Cl,195 to 197
3,N#CC(Sc1ccc(Cl)cc1)=C1SCCN1c1ccccc1,144 to 146
4,CCOCC(=O)Nc1ncc(Cc2cc(OC)c(OC)c(OC)c2)c(N)n1,175 to 176
5,COc1ccc2c(C(=O)O)cn(C(C)C)c2c1,162 to 163
6,Nc1ncccc1NCc1ccc(OCc2cccc(F)c2)cc1,91 to 93
7,O=C(Nc1ccc2[nH]ncc2c1)N[C@@H](c1ccccc1)[C@@H]1CCCCN1,147 to 149
8,CC(C)(C)OC(=O)NCCNC(=O)c1cccc(Cl)n1,114 to 115
9,COc1nc(Nc2ccc(C)cc2[N+](=O)[O-])nc(OC)n1,189 to 191
10,Nc1nc2c(sc(=O)n2Cc2ccc(Br)cc2)c(=O)[nH]1,> 320
11,O=C(CS(=O)(=O)C(c1ccc(Cl)cc1)c1ccc(Cl)cc1)c1cccs1,150 to 151
12,Cc1c(Cc2cc(=O)n(-c3cccc(C(F)(F)F)c3)[nH]2)c2cc(Cl)ccc2n1C(=O)c1ccc(Cl)cc1,81 to 83
13,O=C(O)COc1ccc(-c2c(Cl)c(CN3C(=O)CCC3=O)nc3sc4c(c23)CCS(=O)(=O)C4)cc1,260 to 261
14,Cc1c(C)n(CC2CC2)c2c(CCc3ccc(F)cc3F)nncc12,159 to 160
15,CC(Cl)(Cl)C(NC(=O)c1ccc(Cl)cc1)NC(=NC#N)Nc1ccc(C(F)(F)F)nc1 (centres undefined),204 to 205
16,COc1cccc([C@H]2CCCN2[S@@](=O)C(C)(C)C)c1,45 to 50
17,COC(=O)CN1CC([N+](=O)[O-])=C(Cc2ccc(C(C)(C)C)cc2)C=C1C,135
18,OC(CCc1cccnc1)COc1ccc(CCc2ccccc2)cc1 (centres undefined),95 to 96
19,COc1cccc2c(Cl)nc(Cl)nc12,155 to 157
20,CC1(C)CC(C)(c2ccc(Oc3ccc(N)cc3)cc2)c2cc(Oc3ccc(N)cc3)ccc21 (centres undefined),135 to 136
21,COc1cc(CNC(=O)c2nc3cnn(CCOc4ccc(C(=O)O)cc4)c3c(=O)[nH]2)ccc1F,228 to 230

# Second part, the molecule after the results:
row,melting point [°C],SMILES
1,223 to 224,COc1ccnc(NC(=O)NS(=O)(=O)c2ccccc2-c2nn(C)c(=O)o2)n1
2,59 to 63,CCCCC#Cc1cc2c(cc1Br)C(C)(C)CCC2(C)C
3,171 to 172,CC1(C)OC(=S)Nc2ccc(-c3ccccc3Cl)cc21
4,131 to 133,CCC(c1ccc(O)cc1)c1ccc(O)cc1
5,249 to 250,CC(=O)Nc1ccc(-c2cc(=O)c(C(=O)O)cn2-c2ccc(F)cc2)cc1
6,206 to 207,N#Cc1c[nH]c2cccc(O)c12
7,155 to 156,CC(C)(C)n1nc(-c2ccc(C(F)(F)F)cc2)c(C#N)c1N
8,80,CCOC(=O)NC(=S)SCc1ccc(Cl)cc1
9,118 to 120,COC(=O)C(O)=CC(=O)N(Cc1ccc(F)cc1)Cc1ccc(F)cc1
10,244 to 247,Cc1cc(C(=O)O)ccc1-c1cnc2[nH]c(=O)n(CC3CCCCC3)c2n1
11,153,COc1ccc(-c2cc(-c3ccc(F)cc3)ccc2C(=O)N2CCOCC2)cc1OC
12,124 to 126,CCOC(=O)[C@H](CCc1ccccc1)N[C@@H](C)C(=O)N1CC2(C[C@H]1C(=O)O)SCCS2
13,154 to 156,CC(NC(=O)C=Cc1ccc(C(C)(C)C)cc1)c1ccc(NS(C)(=O)=O)c(F)c1 (centres undefined)
14,145,COC(=O)c1nn(-c2ccc(Cl)cc2Cl)c(-c2ccc(Cl)cc2)c1CBr
15,78 to 80,"CC(NC(=O)c1cccnc1Oc1ccc(F)cc1)c1ccc(Cl)s1 (single isomer, unassigned; (+))"
16,31 to 32,CC(=O)SC(C(C)=O)c1ccccc1 (centres undefined)
17,> 250,COc1cc2nc(N3CCN(c4nc5ccccc5[nH]4)CC3)nc(N)c2cc1OC

row,melting point [°C],SMILES
1,96 to 99,CC(=O)CCCCCCC(CC(C)C(O)C(N)CO)c1cccs1 (centres undefined)
2,132 to 134,O=C1N(Cc2ccncc2)Cc2cccnc2N1c1cccc(Cl)c1
3,> 245,N#Cc1cnc2sc(-c3ccccc3)cc2c1-c1ccc2[nH]ccc2c1
4,102 to 103,COc1cc(C(C)C)ccc1C1COc2c(C)c(C)c(Br)c(C)c21 (centres undefined)
5,62,CC(C)(O)C#Cc1ccc(Br)cc1
6,133 to 134,CCS(=O)c1nc(-c2ccccc2)c(-c2ccccc2)o1 (centres undefined)
7,188 to 190,CC1(C)CC(NC(=O)c2cc(N)cc(N)c2)CC(C)(C)N1
8,166 to 167,Cn1nc(N=Cc2ccncc2)nc1NCCCOC1=CCC=C(CN2CCCC2)C1
9,185 to 195,COc1cc(/C=C/C(=O)Oc2ccc(NC(C)=O)cc2)ccc1O
10,125 to 127,COc1ccc2nc(NC(=O)C(CC3CCCC3)c3ccc(S(=O)(=O)Nc4cccnc4)cc3)sc2n1 (centres undefined)
11,89 to 90,CNc1cc(Oc2cccc(C(F)(F)F)c2)nc(C(=O)NC(C)C)c1
12,220 to 222,CCC(O)c1ccc(Cl)c2nc3n(c12)CCCN3c1ccc(Cl)cc1C(F)(F)F (centres undefined)
13,126 to 127,O=C1NC(=O)C(Cc2ccc(S(=O)(=O)CCCc3ccccc3)cc2)S1 (centres undefined)
14,128 to 130,CCCCCCCCCCNC(=O)C1=C(C(=O)Nc2cc(OC3CCCC3)c(Cl)cc2F)CCCC1
15,122,COC(OC)c1ncc[nH]1
16,240 to 241,Cc1ccc(-n2nc(C)c(NC(N)=S)c2C)cc1
17,112 to 113,COC(=O)c1nn(C)nc1CO
